Earlier results as cited in patent publication US10603382B2, “Ophthalmic composition” (Johnson & Johnson Consumer Inc., priority 2014, dated 2020).

Details: Merck Index, Twelfth Edition

Solubility (g/100 ml water at 25° C.) [g/100 ml]	SMILES
78	O=C(O)/C=C\C(=O)O [Maleic acid]
0.63	O=C(O)/C=C/C(=O)O [Fumaric acid]

SMILES	Solubility (g/100 ml water at 25° C.) [g/100 ml]
O=C(O)CCCC(=O)O [Glutaric acid]	63.9
